# Measurements: PubChem BioAssay (NCI)
#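 Where inhibition never reached the appropriate level, the endpoint shown equals the highest concentration tested. Otherwise, values were interpolated linearly from a five-concentration, 48-hour dose response in 96-well plates. GI50 is the concentration that inhibits growth by half. TGI: concentration producing complete growth inhibition.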
# Experiments:
# Test in all cases: NCI-60 cell line screen, 48 h
# [1] = tested on: 786-0 renal
# [2] = tested on: A498 renal
# [3] = tested on: A549 NSCLC
# [4] = tested on: ACHN renal
# [5] = tested on: BT-549 breast
# [6] = tested on: CAKI-1 renal
# [7] = tested on: CCRF-CEM leukemia
# [8] = tested on: COLO 205 colon
# [9] = tested on: DU-145 prostate
# [10] = tested on: EKVX NSCLC
# [11] = tested on: HCC-2998 colon
# [12] = tested on: HCT-116 colon
# [13] = tested on: HCT-15 colon
# [14] = tested on: HL-60(TB) leukemia
# [15] = tested on: HOP-62 NSCLC
# [16] = tested on: HOP-92 NSCLC
# [17] = tested on: HS 578T breast
# [18] = tested on: HT29 colon
# [19] = tested on: IGROV1 ovarian
# [20] = tested on: K-562 leukemia
# [21] = tested on: KM12 colon
# [22] = tested on: LOX IMVI melanoma
# [23] = tested on: M14 melanoma
# [24] = tested on: MALME-3M melanoma
# [25] = tested on: MCF7 breast
# [26] = tested on: MDA-MB-231 breast
# [27] = tested on: MDA-MB-435
# [28] = tested on: MDA-MB-468 breast
# [29] = tested on: MOLT-4 leukemia
# [30] = tested on: NCI-H226 lung
# [31] = tested on: NCI-H23 lung
# [32] = tested on: NCI-H460 lung
# [33] = tested on: NCI-H522 lung
# [34] = tested on: OVCAR-3 ovarian
# [35] = tested on: OVCAR-4 ovarian
# [36] = tested on: OVCAR-5 ovarian
# [37] = tested on: OVCAR-8 ovarian
# [38] = tested on: PC-3 prostate
# [39] = tested on: RPMI-8226 leukemia
# [40] = tested on: RXF 393 renal
# [41] = tested on: SF-268 CNS
# [42] = tested on: SF-295 CNS
# [43] = tested on: SF-539 CNS
# [44] = tested on: SK-MEL-2 melanoma
# [45] = tested on: SK-MEL-28 melanoma
# [46] = tested on: SK-MEL-5 melanoma
# [47] = tested on: SK-OV-3 ovarian
# [48] = tested on: SN12C renal
# [49] = tested on: SNB-19 CNS
# [50] = tested on: SNB-75 CNS
# [51] = tested on: SR leukemia
# [52] = tested on: SW-620 colon
# [53] = tested on: T-47D breast
# [54] = tested on: TK-10 renal
# [55] = tested on: U251 CNS
# [56] = tested on: UACC-257 melanoma
# [57] = tested on: UACC-62 melanoma
# [58] = tested on: UO-31 renal
smiles,measurement,setting,value
O=C1NC(=NC23CC4CC(CC(C4)C2)C3)N/C1=C\c1ccc2ncccc2c1,GI50,[1],8.95 µM
same,TGI,[1],45 µM
same,GI50,[2],1.12 µM
same,TGI,[2],> 100 µM
same,GI50,[3],4.09 µM
same,TGI,[3],18.6 µM
same,GI50,[4],4.09 µM
same,TGI,[4],26.2 µM
same,GI50,[5],4.39 µM
same,TGI,[5],41.9 µM
same,GI50,[6],4.15 µM
same,TGI,[6],34.7 µM
same,GI50,[7],3.22 µM
same,TGI,[7],19.1 µM
same,GI50,[8],5.58 µM
same,TGI,[8],> 100 µM
same,GI50,[9],6.03 µM
same,TGI,[9],> 100 µM
same,GI50,[10],8.33 µM
same,TGI,[10],> 100 µM
same,GI50,[11],7.5 µM
same,TGI,[11],> 100 µM
same,GI50,[12],3.41 µM
same,TGI,[12],16 µM
same,GI50,[13],2.8 µM
same,TGI,[13],22.7 µM
same,GI50,[14],3.09 µM
same,TGI,[14],27.3 µM
same,GI50,[15],6.56 µM
same,TGI,[15],> 100 µM
same,GI50,[16],25.9 µM
same,TGI,[16],> 100 µM
same,GI50,[17],2.9 µM
same,TGI,[17],34.3 µM
same,GI50,[18],22.8 µM
same,TGI,[18],> 100 µM
same,GI50,[19],6.43 µM
same,TGI,[19],> 100 µM
same,GI50,[20],3.08 µM
same,TGI,[20],> 100 µM
same,GI50,[21],11 µM
same,TGI,[21],> 100 µM
same,GI50,[22],7.86 µM
same,TGI,[22],29.5 µM
same,GI50,[23],6.07 µM
same,TGI,[23],> 100 µM
same,GI50,[24],28.6 µM
same,TGI,[24],94.9 µM
same,GI50,[25],6.59 µM
same,TGI,[25],> 100 µM
same,GI50,[26],16.9 µM
same,TGI,[26],64.7 µM
same,GI50,[27],5.53 µM
same,TGI,[27],> 100 µM
same,GI50,[28],2.11 µM
same,TGI,[28],> 100 µM
same,GI50,[29],3.95 µM
same,TGI,[29],26 µM
same,GI50,[30],4.91 µM
same,TGI,[30],42.1 µM
same,GI50,[31],4.98 µM
same,TGI,[31],> 100 µM
same,GI50,[32],3.38 µM
same,TGI,[32],15.2 µM
same,GI50,[33],1.97 µM
same,TGI,[33],30.8 µM
same,GI50,[34],2.86 µM
same,TGI,[34],29.7 µM
same,GI50,[35],16.3 µM
same,TGI,[35],80.8 µM
same,GI50,[36],64.4 µM
same,TGI,[36],> 100 µM
same,GI50,[37],8 µM
same,TGI,[37],33.2 µM
same,GI50,[38],15 µM
same,TGI,[38],64.2 µM
same,GI50,[39],6.82 µM
same,TGI,[39],51.2 µM
same,GI50,[40],3.45 µM
same,TGI,[40],28.1 µM
same,GI50,[41],8.17 µM
same,TGI,[41],> 100 µM
same,GI50,[42],7.56 µM
same,TGI,[42],64.9 µM
same,GI50,[43],1.18 µM
same,TGI,[43],> 100 µM
same,GI50,[44],2.35 µM
same,TGI,[44],10 µM
same,GI50,[45],12.5 µM
same,TGI,[45],> 100 µM
same,GI50,[46],12.4 µM
same,TGI,[46],> 100 µM
same,GI50,[47],3.59 µM
same,TGI,[47],35.2 µM
same,GI50,[48],5.17 µM
same,TGI,[48],> 100 µM
same,GI50,[49],11.7 µM
same,TGI,[49],> 100 µM
same,GI50,[50],0.218 µM
same,TGI,[50],26.6 µM
same,GI50,[51],2.33 µM
same,TGI,[51],12.3 µM
same,GI50,[52],3.95 µM
same,TGI,[52],> 100 µM
same,GI50,[53],19.4 µM
same,TGI,[53],> 100 µM
same,GI50,[54],6.87 µM
same,TGI,[54],60.7 µM
same,GI50,[55],10.2 µM
same,TGI,[55],26.8 µM
same,GI50,[56],66.1 µM
same,TGI,[56],> 100 µM
same,GI50,[57],40.2 µM
same,TGI,[57],> 100 µM
same,GI50,[58],5.03 µM
same,TGI,[58],> 100 µM
